# US9123099B2, “Systems with workstations and circuits for generating images of global injury” (Wake Forest University Health Sciences, priority 2004, dated 2015)
# Key:
# [1] = test system: left ventricle myocardium; test: Cross-sectional delayed enhancement MRI/CMR study of gadolinium contrast uptake, voxel intensity and auto-correlation; type: in vivo, human
# Excerpt: In particular embodiments of the present invention, a patient may be taken to the MRI suite where he/she will be placed supine on the MRI table and ECG leads and respiratory gating bellows applied. MRI scans may be performed on, for example, a 1.5 Tesla GE CVi scanner with a phased array surface coil applied around the chest to optimize signal to noise ratio, or another MRI scanner. Images may be acquired using a fast gradient echo technique, with the repetition time (TR) and echo time (TE) based on the R-R interval of the subject. Multislice coronal, gradient echo sequences may be used to obtain scout images of the chest and locate the left ventricle. Subjects may be injected intravenously with a gadolinium contrast agent (0.2 mmole/kg Gadoteridol (Prohance, Bracco Diagnostics, Princeton, N.J.)). The time of this injection may be recorded.
# However, this method may not be as well suited for a process that causes necrosis to susceptible tissue throughout the LV myocardium in a randomly distributed pattern (e.g. a global injury). To overcome this limitation, voxels, and in some embodiments all the voxels, within three short axis slice positions (apex, middle, and base) within the LV may be sampled and the intensity and x, y, and z coordinates of each voxel identified in 3-dimensional space (FIG. 6). FIG. 6 is a 3-Dimensional depiction of 3 short axis (basal, middle, and apical) planes of the left ventricle. […] During analysis, the image intensity of each voxel and the x, y, and z coordinates are recorded. […]
# Correction for variations in the intensity of voxels in the images may also be identified by determining the intensity of voxels within a target region, typically, a 1 cm diameter circular ROI placed outside the heart. For each apical, middle, and basal slice, the number of pixels at a given intensity may be determined and the intensity from the ROI external to the heart subtracted from the pixels. In certain embodiments, for each slice, the mean intensity of all voxels and the peak voxel intensity in the highest 40% of the distribution may be determined (FIG. 6). […]
# [2] = cited from earlier work
smiles,measurement,setting,value
COc1cccc2c1C(=O)c1c(O)c3c(c(O)c1C2=O)C[C@@](O)(C(=O)CO)C[C@@H]3O[C@H]1C[C@H](N)[C@H](O)[C@H](C)O1 [doxorubicin],mean intensity of contrast uptake in voxel histogram,"[1]; doxorubicin cardiomyopathy patient, middle short axis view, 20 minutes after contrast, low in healthy patient, highest in infarct patient",intermediate
same,percentage of voxel intensities in aggregate histograms vs normal age matched controls,"[1]; patients with cardiomyopathy due to doxorubicin, about 20 minutes after contrast",increased percentage of intensities
same,pattern of contrast uptake within the LV (serial auto-correlation),"[1]; patients with cardiomyopathy secondary to doxorubicin, p<0.001 vs myocardial infarction",random
same,patients experiencing toxicity who do so after receipt of approximately 100 mg/m^2,"[2]; approximately 100 mg/m^2, usually at T=1 month",about 85%
same,dose above which irreversible cardiomyopathy with serious congestive heart failure is a significant risk,"[2]; patients, cumulative dose",500-550 mg/m^2
same,dose that precipitates congestive heart failure,[2]; report of 1487 patients studied over a seven year period,30-880 mg/m^2
